Experiments:
Homo sapiens [1] = species on record: Homo sapiens; test: Ratio of IC50 for human COX1 to IC50 for human COX2
[2] = biological target: T1, Prostaglandin G/H synthase 2 (Homo sapiens, UniProt P35354)
T1 sequence (P35354 whole entry): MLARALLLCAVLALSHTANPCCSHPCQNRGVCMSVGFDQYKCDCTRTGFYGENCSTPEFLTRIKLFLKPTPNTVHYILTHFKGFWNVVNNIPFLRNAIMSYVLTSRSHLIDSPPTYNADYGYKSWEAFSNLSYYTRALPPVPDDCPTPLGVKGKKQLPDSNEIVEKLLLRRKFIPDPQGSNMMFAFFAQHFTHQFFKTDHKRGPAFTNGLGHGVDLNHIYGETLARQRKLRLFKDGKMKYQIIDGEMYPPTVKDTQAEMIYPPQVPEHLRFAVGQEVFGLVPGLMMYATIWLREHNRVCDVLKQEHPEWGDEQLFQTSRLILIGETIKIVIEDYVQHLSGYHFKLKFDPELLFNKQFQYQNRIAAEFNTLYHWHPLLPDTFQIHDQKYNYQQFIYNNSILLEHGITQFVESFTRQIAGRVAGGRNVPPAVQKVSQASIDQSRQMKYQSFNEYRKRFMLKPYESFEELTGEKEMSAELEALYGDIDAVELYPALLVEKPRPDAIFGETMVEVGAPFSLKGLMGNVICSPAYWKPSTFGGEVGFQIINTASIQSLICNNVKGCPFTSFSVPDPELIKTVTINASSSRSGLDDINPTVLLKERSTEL
Description: Inhibition of human COX2 in human whole blood

Homo sapiens [3] = species on record: Homo sapiens; test: Ratio of IC50 for human COX1 to IC50 for human COX2 in human whole blood; assay type: tissue-based
[4] = biological target: T1, Prostaglandin G/H synthase 2; remark: listed apart in the source

SMILES	Ratio IC50 (Homo sapiens [1])	IC50 [2] [µM]	Ratio IC50 (Homo sapiens [3])	IC50 [4] [µM]
NS(=O)(=O)c1ccc(-c2nc(NCc3ccccc3)cc(C(F)(F)F)n2)cc1	> 25	> 10	> 5	3.98
NS(=O)(=O)c1ccc(-c2nc(NCc3cccs3)cc(C(F)(F)F)n2)cc1	3530	0.158	> 634	0.0223
CS(=O)(=O)c1ccc(-c2nc(NCc3cccnc3)cc(C(F)(F)F)n2)cc1	> 1	> 10	> 1	> 10
CS(=O)(=O)c1ccc(-c2nc(NCc3nc4ccccc4[nH]3)cc(C(F)(F)F)n2)cc1	> 1	> 10	> 1	> 10
NS(=O)(=O)c1ccc(-c2nc(NCc3ccsc3)cc(C(F)(F)F)n2)cc1	1390	0.0519	> 193	0.072
CS(=O)(=O)c1ccc(-c2nc(NCc3ccc4ccccc4c3)cc(C(F)(F)F)n2)cc1	> 1	> 10	> 1	> 10

Source: ChEMBL document CHEMBL1143107 (Bioorg Med Chem, 2008)
